# Laboratory results published in patent US20090099195A1 (ASTRAZENECA AB, priority 2007, published 2009).
# Assays:
# [1] = target: T1, hP2X3 (human Purinergic P2X receptors subtype 3), clone A (Homo sapiens, UniProt P56373); experiment: hP2X3 FLIPR calcium (Fluo-4) antagonist assay, clone A; conditions: Human P2X3 FLIPR Clone A Mean IC50 (nM), RLE cells expressing hP2X3 clone A (AB016608); agonist 500 nM α,β-methylene-ATP
# T1 sequence (P56373 1-397): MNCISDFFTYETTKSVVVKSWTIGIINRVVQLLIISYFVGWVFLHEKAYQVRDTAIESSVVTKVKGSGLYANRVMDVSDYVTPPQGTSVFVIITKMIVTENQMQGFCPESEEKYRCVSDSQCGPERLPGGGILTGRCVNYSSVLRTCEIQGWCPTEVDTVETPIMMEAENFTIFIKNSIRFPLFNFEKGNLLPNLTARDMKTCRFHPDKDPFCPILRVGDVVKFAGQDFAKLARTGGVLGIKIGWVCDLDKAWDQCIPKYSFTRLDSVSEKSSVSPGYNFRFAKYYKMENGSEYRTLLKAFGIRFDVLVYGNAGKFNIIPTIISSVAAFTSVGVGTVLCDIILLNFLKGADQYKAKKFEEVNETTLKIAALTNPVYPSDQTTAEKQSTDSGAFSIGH
# [2] = target: T2, hP2X3 (human Purinergic P2X receptors subtype 3), clone B (Homo sapiens, UniProt P56373); experiment: hP2X3 FLIPR calcium (Fluo-4) antagonist assay, clone B; conditions: Human P2X3 FLIPR Clone B IC50 (nM), RLE cells expressing hP2X3 clone B (NM_002559); agonist 500 nM α,β-methylene-ATP
# T2 sequence (P56373 1-397): T1 sequence (P56373 1-397)
SMILES,IC50 [1],IC50 [2]
"CCOc1ccc([C@H](CO)Nc2nc(N3CCN(C(C)=O)CC3)nc3c2CN(C(C)C)C3=O)cc1 [Example 180, (R)-2-(4-acetylpiperazin-1-yl)-4-(1-(4-ethoxyphenyl)-2-hydroxyethylamino)-6-isopropyl-5H-pyrrolo[3,4-d]pyrimidin-7(6H)-one]",7120 nM,5800 nM
"CC(=O)N1CCN(c2nc(N[C@H](C)c3cccc(OC(F)F)c3)c3c(n2)C(=O)N(C(C)C)C3)CC1 [Example 181, (R)-2-(4-acetylpiperazin-1-yl)-4-(1-(3-(difluoromethoxy)phenyl)ethylamino)-6-isopropyl-5H-pyrrolo[3,4-d]pyrimidin-7(6H)-one]",175 nM,320 nM
"CC(=O)N1CCN(c2nc(N[C@H](C)c3ccc(C(F)(F)F)c(F)c3)c3c(n2)C(=O)N(C(C)C)C3)CC1 [Example 182, (R)-2-(4-acetylpiperazin-1-yl)-4-(1-(3-fluoro-4-(trifluoromethyl)phenyl)ethylamino)-6-isopropyl-5H-pyrrolo[3,4-d]pyrimidin-7(6H)-one]",271 nM,240 nM
"CC(=O)N1CCN(c2nc(N[C@H](C)c3cc(C(F)(F)F)ccc3F)c3c(n2)C(=O)N(C(C)C)C3)CC1 [Example 183, (R)-2-(4-acetylpiperazin-1-yl)-4-(1-(2-fluoro-5-(trifluoromethyl)phenyl)ethylamino)-6-isopropyl-5H-pyrrolo[3,4-d]pyrimidin-7(6H)-one]",199 nM,170 nM
"CC(=O)N1CCN(c2nc(N[C@H](C)c3cc(F)cc(C(F)(F)F)c3)c3c(n2)C(=O)N(C(C)C)C3)CC1 [Example 184, (R)-2-(4-acetylpiperazin-1-yl)-4-(1-(3-fluoro-5-(trifluoromethyl)phenyl)ethylamino)-6-isopropyl-5H-pyrrolo[3,4-d]pyrimidin-7(6H)-one]",101 nM,87 nM
"CCOc1ccc([C@H](Nc2nc(N3CCN(C(C)=O)CC3)nc3c2CN(C(C)C)C3=O)C2CC2)cc1 [Example 185, (R)-2-(4-acetylpiperazin-1-yl)-4-(cyclopropyl(4-ethoxyphenyl)methylamino)-6-isopropyl-5H-pyrrolo[3,4-d]pyrimidin-7(6H)-one]",79.7 nM,74 nM
"CC(=O)N1CCN(c2nc(N[C@H](C)c3ccc(C(F)(F)F)cc3F)c3c(n2)C(=O)N(C(C)C)C3)CC1 [Example 186, (R)-2-(4-acetylpiperazin-1-yl)-4-(1-(2-fluoro-4-(trifluoromethyl)phenyl)ethylamino)-6-isopropyl-5H-pyrrolo[3,4-d]pyrimidin-7(6H)-one]",138 nM,100 nM
"CC(=O)N1CCN(c2nc(N[C@H](C)c3cccc(C(F)(F)F)c3F)c3c(n2)C(=O)N(C(C)C)C3)CC1 [Example 187, (R)-2-(4-acetylpiperazin-1-yl)-4-(1-(2-fluoro-3-(trifluoromethyl)phenyl)ethylamino)-6-isopropyl-5H-pyrrolo[3,4-d]pyrimidin-7(6H)-one]",117 nM,96 nM
"CC(=O)N1CCN(c2nc(N[C@H](C)c3ccc(F)c(C(F)(F)F)c3)c3c(n2)C(=O)N(C(C)C)C3)CC1 [Example 188, (R)-2-(4-acetylpiperazin-1-yl)-4-(1-(4-fluoro-3-(trifluoromethyl)phenyl)ethylamino)-6-isopropyl-5H-pyrrolo[3,4-d]pyrimidin-7(6H)-one]",174 nM,140 nM
"CCOc1ccc([C@@H](CO)Nc2nc(N3CCN(C(C)=O)CC3)nc3c2CN(C(C)C)C3=O)cc1 [Example 189, (S)-2-(4-acetylpiperazin-1-yl)-4-(1-(4-ethoxyphenyl)-2-hydroxyethylamino)-6-isopropyl-5H-pyrrolo[3,4-d]pyrimidin-7(6H)-one]",76.6 nM,79 nM
"CC(=O)N1CCN(c2nc(N[C@H](C)c3ccc(OC(C)C)c(F)c3)c3c(n2)C(=O)N(C(C)C)C3)CC1 [Example 190, (R)-2-(4-acetylpiperazin-1-yl)-4-(1-(3-fluoro-4-isopropoxyphenyl)ethylamino)-6-isopropyl-5H-pyrrolo[3,4-d]pyrimidin-7(6H)-one]",47.2 nM,44 nM
"CC(=O)N1CCN(c2nc(N[C@H](C)c3ccc(OC4CCC4)cc3)c3c(n2)C(=O)N(C(C)C)C3)CC1 [Example 191, (R)-2-(4-acetylpiperazin-1-yl)-4-(1-(4-cyclobutoxyphenyl)ethylamino)-6-isopropyl-5H-pyrrolo[3,4-d]pyrimidin-7(6H)-one]",81.3 nM,62 nM
"CCOc1ccc(CC(C)(C)Nc2nc(N3CCN(C(C)=O)CC3)nc3c2CN(C(C)C)C3=O)cc1 [Example 198, 2-(4-acetylpiperazin-1-yl)-4-(1-(4-ethoxyphenyl)-2-methylpropan-2-ylamino)-6-isopropyl-5H-pyrrolo[3,4-d]pyrimidin-7(6H)-one]",1230 nM,640 nM
"CC(=O)N1CCN(c2nc(NCc3nc4ccccc4s3)c3c(n2)C(=O)N(C(C)C)C3)CC1 [Example 199, 2-(4-acetylpiperazin-1-yl)-4-(benzo[d]thiazol-2-ylmethylamino)-6-isopropyl-5H-pyrrolo[3,4-d]pyrimidin-7(6H)-one]",5050 nM,2300 nM
"CC(C)N1Cc2c(nc(N3CCN(C)C(=O)C3)nc2N(C)Cc2cc3ccccc3cn2)C1=O [Example 200, 6-isopropyl-4-((isoquinolin-3-ylmethyl)(methyl)amino)-2-(4-methyl-3-oxopiperazin-1-yl)-5H-pyrrolo[3,4-d]pyrimidin-7(6H)-one]",501 nM,790 nM

# Second part, the compound after the results:
IC50 [1],IC50 [2],SMILES
83.2 nM,80 nM,"CCN(c1nc(N2CCN(C(C)=O)CC2)nc2c1CN(C(C)C)C2=O)C(C)c1ccc2ncccc2c1 (single isomer, unassigned) [Example 257, 2-(4-acetylpiperazin-1-yl)-4-(ethyl(1-(quinolin-6-yl)ethyl)amino)-6-isopropyl-5H-pyrrolo[3,4-d]pyrimidin-7(6H)-one]"
232 nM,250 nM,"CCN(c1nc(N2CCN(C(C)=O)CC2)nc2c1CN(C(C)C)C2=O)C(C)c1ccc2ncccc2c1 (single isomer, unassigned) [Example 258, 2-(4-acetylpiperazin-1-yl)-4-(ethyl(1-(quinolin-6-yl)ethyl)amino)-6-isopropyl-5H-pyrrolo[3,4-d]pyrimidin-7(6H)-one]"
1900 nM,2300 nM,"CC(=O)N1CCN(c2nc3c(c(N(C)C(C)c4ccc5ncccc5c4)n2)CN(C(C)C)C3=O)CC1 (single isomer, unassigned) [Example 260, 2-(4-acetylpiperazin-1-yl)-6-isopropyl-4-(methyl(1-(quinolin-6-yl)ethyl)amino)-5H-pyrrolo[3,4-d]pyrimidin-7(6H)-one]"
71.1 nM,64 nM,"CC(=O)N1CCN(c2nc3c(c(N(C)C(C)c4ccc5ncccc5c4)n2)CN(C(C)C)C3=O)CC1 (single isomer, unassigned) [Example 261, 2-(4-acetylpiperazin-1-yl)-6-isopropyl-4-(methyl(1-(quinolin-6-yl)ethyl)amino)-5H-pyrrolo[3,4-d]pyrimidin-7(6H)-one]"
40 nM,32 nM,"CCC(C)N1Cc2c(nc(N3CCN(C(C)=O)CC3)nc2N(CC)Cc2cc3ccccc3cn2)C1=O (single isomer, unassigned) [Example 317, 2-(4-acetylpiperazin-1-yl)-4-[ethyl(isoquinolin-3-ylmethyl)amino]-6-(1-methylpropyl)-5,6-dihydro-7H-pyrrolo[3,4-d]pyrimidin-7-one]"
43 nM,41 nM,"CCC(C)N1Cc2c(nc(N3CCN(C(C)=O)CC3)nc2N(CC)Cc2cc3ccccc3cn2)C1=O (single isomer, unassigned) [Example 318, 2-(4-acetylpiperazin-1-yl)-4-[ethyl(isoquinolin-3-ylmethyl)amino]-6-(1-methylpropyl)-5,6-dihydro-7H-pyrrolo[3,4-d]pyrimidin-7-one]"
723 nM,410 nM,"CCOc1ccc([C@@H](C)Nc2nc(N3CCN(C)C(=O)C3)nc3c2CN(C(C)C)C3=O)cc1F [Example 201, (R)-4-(1-(4-ethoxy-3-fluorophenyl)ethylamino)-6-isopropyl-2-(4-methyl-3-oxopiperazin-1-yl)-5H-pyrrolo[3,4-d]pyrimidin-7(6H)-one]"
356 nM,–,"CCN1CCN(c2nc3c(c(N(C)Cc4cc5ccccc5cn4)n2)CN(C(C)C)C3=O)CC1=O [Example 362, 2-(4-ethyl-3-oxopiperazin-1-yl)-6-isopropyl-4-((isoquinolin-3-ylmethyl)(methyl)amino)-5H-pyrrolo[3,4-d]pyrimidin-7(6H)-one]"
574 nM,–,"CCOc1ccc([C@@H](C)Nc2nc(N3CCN(CC(F)(F)F)C(=O)C3)nc3c2CN(C(C)C)C3=O)cc1 [Example 363, (R)-4-(1-(4-ethoxyphenyl)ethylamino)-6-isopropyl-2-(3-oxo-4-(2,2,2-trifluoroethyl)piperazin-1-yl)-5H-pyrrolo[3,4-d]pyrimidin-7(6H)-one]"
795 nM,–,"CC(C)N1Cc2c(nc(N3CCN(CC(F)(F)F)C(=O)C3)nc2N(C)Cc2cc3ccccc3cn2)C1=O [Example 364, 6-isopropyl-4-((isoquinolin-3-ylmethyl)(methyl)amino)-2-(3-oxo-4-(2,2,2-trifluoroethyl)piperazin-1-yl)-5H-pyrrolo[3,4-d]pyrimidin-7(6H)-one]"
